Key:
[1] = test system: cocaine-dependent WT mice; assay: Free-choice two-bottle drinking after chronic cocaine exposure; format: in vivo, C57BL/6J mice; conditions: WT mice after chronic cocaine exposure (15 mg/kg i.p., 7 days); sulfasalazine 15 mg/kg/day i.p. for 6 days during free-choice drinking; compared to vehicle
[2] = test system: alcohol-dependent mice; assay: Free-choice two-bottle drinking after chronic alcohol exposure; format: in vivo, C57BL/6J mice; conditions: WT mice after chronic alcohol exposure; treatment for 7 days; sulfasalazine 15 mg/kg/day i.p., sorafenib 30 mg/kg i.p., regorafenib 30 mg/kg i.p.; compared to control vehicle (DMSO); FIG. 2B
Method: Data are means±SD (n=6-8). *P<0.0001 compared to water. ^#P<0.0001 compared to WT mice or vehicle treatment.
(§1) The concentration of alcohol was increased every fourteenth day. […] Intakes were recorded every day.

[3] = test system: wild type cortical cells; assay: Annexin V apoptosis assay in primary cortical cells exposed to alcohol or cocaine; format: cell-based, C57BL/6J mouse; conditions: alcohol or cocaine incubation, 18 hours; sulfasalazine 500 μM, sorafenib 10 μM, regorafenib 10 μM; compared to vehicle (DMSO); FIG. 6
Method: Data are means±SD (n=3). *P<0.001 compared to vehicle group.
Primary cortical cells were prepared from cerebral cortices of wild-type C57BL/6J or xCT homozygous knockout (xCT KO) mouse embryos in embryonic day 17 as previously described in Shyu, W. C., et al., Secretoneurin promotes neuroprotection and neuronal plasticity via the Jak2/Stat3 pathway in murine models of stroke. J Clin Invest, 2008. 118(1): p. 133-48.
Annexin V staining was performed to determine cell apoptosis using the Annexin V-FITC Apoptosis Detection Kit (Sigma-Aldrich) for 10 minutes at room temperature according to the manufacturer's instructions, and then flow cytometric analysis was performed.

[4] = test system: TUNEL-positive cells in frontal cortex; assay: TUNEL staining of brain after chronic alcohol exposure; format: in vivo, C57BL/6J mice; conditions: WT mice; treatment for 14 days; sulfasalazine 15 mg/kg/day i.p., sorafenib 30 mg/kg i.p., regorafenib 30 mg/kg i.p.; compared to vehicle; FIG. 4B
Method: as §1

Structure (SMILES)	cocaine preference and craving behaviours [1]	daily alcohol consumption during free-choice drinking [2]	substance-induced apoptosis in cortical cells [3]	chronic alcohol exposure-induced apoptosis (TUNEL-positive cells) in brain [4]
O=C(O)c1cc(/N=N/c2ccc(S(=O)(=O)Nc3ccccn3)cc2)ccc1O [sulfasalazine]	fully inhibited cocaine preference and craving behaviours	significantly attenuated the daily alcohol consumption	significantly inhibited substance-induced apoptosis	
CNC(=O)c1cc(Oc2ccc(NC(=O)Nc3ccc(Cl)c(C(F)(F)F)c3)c(F)c2)ccn1 [regorafenib]		significantly attenuated the daily alcohol consumption	significantly inhibited substance-induced apoptosis	inhibited apoptosis
CNC(=O)c1cc(Oc2ccc(NC(=O)Nc3ccc(Cl)c(C(F)(F)F)c3)cc2)ccn1 [sorafenib]		significantly attenuated the daily alcohol consumption	significantly inhibited substance-induced apoptosis	inhibited apoptosis

From patent publication US10512637B2, “Use of inhibitor of cystine-glutamate transporter” (CHINA MEDICAL UNIVERSITY, priority 2015, dated 2019)
